How the values were obtained:
[1] = tested on: endo and ecotparasitic nematodes; assay: Soil column drench, nematode control (Example 1, FIG. 2); format: in vivo; conditions: 750 ppm; soil screened free of roots; 15, 30 and 60 days after treatment
Description: In situ soil borne pest and disease populations were determined from known commercial locations. These infested soils were commonly of sandy loam or fine sandy loam texture that were screened free of all but the smallest of roots as they were placed into buckets. Buckets were then transported to a single location of deep loamy sand soil where 30″ long by 3″ diameter PVC open-ended pipes had been inserted to a depth of 22″ using a 3″ can auger (FIG. 1). Each soil column was then filled with infested soil to a depth of 22″ using a shovel handle to compress soil density during the soil transfer process.
The surface 8″ of each column remained vacant in order to eventually apply one liter of biocide solution onto each soil column and then determine the amount of time required to fully infiltrate the liter of water. Because infiltration rates varied from 3 hr to 4 days across each different biocide with or without adjuvant each column was used only once. Columns were cleaned and re-inserted to a different nearby location for subsequent tests. As testing proceeded dosage response curves were developed to reveal dosages needed to reach threshold levels for pest impact followed by quantification of the dosage needed to achieve as much as 100% pest kill where possible. […]

[2] = tested on: Meloidogyne incognita race-3; assay: Field Station drench of sandy loam soil infested with root-knot nematode (FIGS. 18-19); format: in vivo
Description: Field Station evaluations included sandy loam soil at 10° C. vs 15° C. in adjacent sites. These sites were uniformly infested with Meloidogyne incognita race-3. The first site (10° C.) was drenched with 750 or 1,000 ppm to a depth of 40 cm and planted with carrots 70 DAT. Ten weeks later soil at the second site (15° C.) was drenched with 1,250 or 1,500 ppm and 30 DAT planted with sweet potato slips. Nematode samples were collected at 0-15 and 15-30 cm depths.

F. oxysporum race-4 = assay: Field Station drench of sandy loam soil to be planted to cotton, fungal counts (FIGS. 20-21); format: in vivo, Fusarium oxysporum; conditions: 3,000 or 4,500 ppm drenched to 40 cm; sandy loam at 10° C.; counted 28 and 70 DAT
Description: Field Station evaluation in sandy loam soil at 10° C. to be planted to cotton soil was drenched with 3,000 or 4,500 ppm HyCyn to 40 cm depth. F. oxysporum race-4 were identified and counted at 28 DAT (FIG. 20) and 70 DAT (FIG. 21).

[3] = tested on: cotton or occasional nutgrass; assay: Phytotoxicity after drench in cotton field; format: in vivo; conditions: 3,000 or 4,500 ppm; never irrigated field
[4] = tested on: Young almond trees on NEMAGUARD rootstock; assay: Almond replant site soil, potted tree growth (FIGS. 22-23); format: in vivo
Source text: Field Station evaluation involved sandy loam soil at an almond replant site drenched uniformly with 1,000 ppm. Surface soil was collected 60 days later and potted from three treatments, water only, 250 ppm Telone EC and 1000 ppm HyCyn. Young almond trees on NEMAGUARD rootstock were planted to each pot and trees maintained for six months.

[5] = tested on: one-year-old almonds trees; assay: Root system soak of one-year-old almond trees (FIGS. 24-25); format: in vivo; conditions: 750 ppm, 24 hr, entire root systems soaked in a static setting
Source text: Field Station evaluation where root systems of one-year-old almonds trees were placed in concentrations of HyCyn. Intact 1-yr-old trees were separated from their planting pots and placed into buckets containing open solutions of 400; 750; 1,000; 1,250; 1,500; or 3,000 ppm HyCyn for 6, 18 or 24 hr. […] The results are depicted in FIGS. 24 and 25.

[6] = tested on: eight-year-old butternut trees, Juglans cathayensis; assay: Drench of eight-year-old butternut trees, tree kill (FIG. 26); format: in vivo
Source text: Field Station evaluation of eight-year-old butternut trees, Juglans cathayensis, drenched with 2,000 ppm HyCyn within 400 or 800 L water. Two of four trees receiving 400 L solution were not completely killed but four of four trees receiving 800 L of the same solution were killed (FIG. 26).

P. vulnus = assay: Five-day sieve-mist extraction of nematodes from roots and soil after tree drench (FIG. 27); format: in vivo, Pratylenchus vulnus; conditions: 2,000 ppm drench

N#CN [HyCyn, hydrogen cyanamide]
effect on nematode populations in test soil [1]: elimination of endo and ecotparasitic nematodes
nematode control ([2]; 750 or 1,000 ppm drenched to 40 cm, sandy loam soil at 10° C., carrots): no nematode control
nematode control ([2]; 1,250 or 1,500 ppm, sandy loam soil at 15° C., sweet potato): did provide nematode control
rate needed to halt F. oxysporum (F. oxysporum race-4): highest rate was necessary to halt F. oxysporum
burning of leaves of cotton or occasional nutgrass [3]: did not cease even five months after treatment
root rejection component of the replant problem ([4]; 1,000 ppm): provides a remedy for the root rejection component of the replant problem
tree growth after six months (FIG. 23) ([4]; 1,000 ppm, compared to soil treated with 250 ppm Telone ec or untreated soil): improved growth
tree growth within 2 months after planting ([4]; soil drenched with 1,000 ppm, collected 60 days later and potted, versus water only): improved growth
plant biomass at the 6th month ([4]; soil drenched with 1,000 ppm, compared to the untreated): plant biomass differences were greater
tree survival after root soak [5]: no tree survived or re-initiated growth
trees not completely killed ([6]; 2,000 ppm within 400 L water): Two of four
trees killed ([6]; 2,000 ppm within 800 L water): four of four
kill of soil dwelling nematodes (P. vulnus; beneath the surface 90 cm of treated soil): 99.9%
kill of P. vulnus from root samples (P. vulnus; root samples, FIG. 27: 30 DAT): kill of all P. vulnus
